# Assay results as given in patent publication US20060276433A1, “Hydrazone derivative” (priority 2003, published 2006).
# pIC50: −log10 of the molar value.
# Key:
# [1] = target: T1, amyloid β-protein (human, 1-40) (Homo sapiens, UniProt P05067); test: Effect of drugs on the amyloid formation of amyloid β-protein (Thioflavine T method); assay type: biochemical; conditions: read-out: IC50 value (50% inhibition concentration of amyloid formation)
# Method: Thereafter, the quantity of amyloid formation was measured by the Thioflavine T method (Naiki et al., Lab Invest, 65, 104-110, 1991). The measured value was converted to a relative value (%) based on the quantity of amyloid formation in the drug-non-added control group, and then 50% inhibition concentration (IC50 value) of amyloid formation was calculated.
# [2] = target: T1, amyloid β-protein (human, 1-40); test: Effect on amyloid formation of various amyloid forming proteins (Thioflavine T method): Aβ1-40; assay type: biochemical; conditions: Aβ1-40 10 μM, PBS(−), room temperature, sampled next day; read-out: IC50 (50% inhibition concentration of amyloid formation), Aβ1-40
# Amyrin = target: T2, Amyrin (Homo sapiens, UniProt P10997); test: Effect on amyloid formation of various amyloid forming proteins (Thioflavine T method): Amyrin; assay type: biochemical; conditions: Amyrin 10 μM, PBS(−), room temperature, sampled next day; read-out: IC50 (50% inhibition concentration of amyloid formation), Amyrin
# T2 construct: Amyrin (10 μM; purchased from Bachem), as an amyloid forming protein; purchased Bachem
# T2 sequence (P10997 34-70 limits assumed): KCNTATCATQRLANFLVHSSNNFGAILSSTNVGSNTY
# [3] = target: Amyloid β-protein (human, 1-42) (Homo sapiens, UniProt P05067); test: Effect on amyloid formation of various amyloid forming proteins (Thioflavine T method): Aβ1-42; assay type: biochemical; conditions: Aβ1-42 10 μM, PBS(−), room temperature, sampled next day; read-out: IC50 (50% inhibition concentration of amyloid formation), Aβ1-42
# [4] = target: partial fragment of prion protein (PrP 118-135) (Homo sapiens, UniProt P04156); test: biochemical
# [5] = tested on: amyloid (senile plaque) in human Alzheimer disease brain sections; test: Specific binding to amyloid in Alzheimer disease brain sections (fluorescence microscopy); conditions: 50 μM in TBS, formalin-fixed human Alzheimer disease brain sections, fluorescence microscope
# Method: Specific Binding to Amyloid
# The compound of Example 21 having fluorescence was dissolved in TBS at a concentration of 50 μM and incubated with formalin-fixed human Alzheimer disease brain sections (purchased from BioChain). Thereafter, the sections were washed with saturated lithium carbonate/40% ethanol, dried and then observed under a fluorescence microscope.
# Thus, it was shown that the compound of the present invention can specifically bind to amyloid in the Alzheimer brain.
# [6] = 15 μM amyloid β-protein (human, 1-40), PBS(−), room temperature, 1 day, drug 1.6, 8 or 40 μM
# T1 sequence (P05067 18-40): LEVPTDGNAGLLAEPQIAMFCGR
# Amyloid β-protein (human, 1-42), sequence (P05067 18-42): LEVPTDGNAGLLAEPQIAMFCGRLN
smiles,measurement,setting,value
"Nc1c(/N=N/c2ccc(-c3ccc(/N=N/c4cc(S(=O)(=O)O)c5ccccc5c4N)cc3)cc2)cc(S(=O)(=O)O)c2ccccc12 [Congo Red, Congo red, reference compound]",pIC50,[1]; [6],6.06
CC(=C(C#N)C#N)c1ccc2cc(N(C)C)ccc2c1 [DDNP],pIC50,[1],5.49
"C(=NNc1ccc(-c2cnco2)cc1)c1ccncc1 [Example 3, 4-Pyridinecarboxyaldehyde 4-(oxazol-5-yl)phenylhydrazone]",pIC50,[2],5.94
same,pIC50,Amyrin,5.68
same,pIC50,[3],6.15
same,pIC50,[4],5.71
same,pIC50,[1]; [6],5.53
"Cc1ccc2nc(-c3ccc(N/N=C/c4ccncc4)cc3)sc2c1 [Example 21, 4-Pyridinecarboxyaldehyde 4-(6-methylbenzothiazol-2-yl)phenylhydrazone]",Fluorescence binding to amyloid in brain sections,[5],accumulation of fluorescence was found in the senile plaque
